System: Plasmodium falciparum strain 3D7
Test: Growth inhibition assay with or without chloroquine, strain 3D7 (Example 3)
Format: cell-based
Procedure: Each P. falciparum strain (BEI Resources) was first synchronized with 5% D-sorbitol following standard protocols at 3-5% hematocrit and 1-2% parasitaemia 20-24 hours prior to the start of the assay. Infected human erythrocytes were prepared at a starting parasitaemia of 0.4-0.7% and 2% hematocrit. Infected erythrocytes were combined with PfRH5-specific or control antibodies starting at a concentration of 666.67 nM with 1:5 serial dilution for each IgG1 antibody and chloroquine at one of two concentrations, 4.91 or 6.58 nM. […] The parasites were grown for 40-48 h until the schizont stage was reached (one complete life cycle). Parasite growth was stopped with three washes of cold PBS. Final parasitaemia was determined by measuring the parasite lactate dehydrogenase (LDH) activity. Percent growth inhibition was expressed relative to uninfected erythrocytes.

In the case of `CCN(CC)CCCC(C)Nc1ccnc2cc(Cl)ccc12` (stereo not shown) [chloroquine, reference compound], the “1025 of chloroquine with the susceptible 3D7 strain” value is reported as 4.91 nM.

Reference: patent publication US11667701B2, “Anti-PfRH5 antibodies and antigen-binding fragments thereof” (priority 2018, dated 2023)
